Measured values reported in EP0559571A1, “Thiazolidine-2,4-dione derivatives, process for their preparation and pharmaceutical compositions containing them” (ADIR ET COMPAGNIE, priority 1992, dated 1993).

Experiments:
[1] = test system: souris ob/ob; test: Hypoglycaemic activity in a non-insulin-dependent diabetes (NIDDM) model, ob/ob mouse; assay type: in vivo; details: ob/ob mice; for Pouvoir hypoglycémiant: at the equi-effective dose of Table 1, 4 days oral, base 100; for Dose provoquant le même effet hypoglycémiant: oral, daily for 4 days, glycaemia at J0 and J5, dose giving the same hypoglycaemic effect (base 100); for minimal effective dose: read-out: DMA (dose minimum active montrant une diminution de la glycémie de 10 à 15 %)
From the text: Les animaux (souris ob/ob) sont traités chaque jour, pendant 4 jours, en administrant par voie orale les composés de l'invention en suspension dans une solution à 20 % de gomme du Sénégal. Avant et après traitement, soit à J₀ et à J₅, le sang est prélevé par ponction du sinus orbital et la glycémie est déterminée. Le tableau 1 présente les doses des différents produits à administrer pour obtenir le même effet hypoglycémiant (base 100).
L'étude d'un effet-dose montre que la dose donnant une diminution de la glycémie initiale de 30 % : ED₃₀ pour le composé de l'exemple 2 est inférieure à 0,1 mg/kg alors que celle de la pioglitazone est comprise entre 5 et 10 mg/kg. La dose minimum active : DMA montrant une diminution de la glycémie de 10 à 15 % est de 0,1 mg/kg pour le composé de l'exemple 2 alors qu'elle est de 3 mg/kg pour la pioglitazone.

[2] = test system: rats Zucker Fa/Fa mâles; test: Model of decreased glucose tolerance with hyperinsulinaemia and hyperlipaemia, male Zucker Fa/Fa rats; assay type: in vivo; details: 5 mg/kg/day oral for 10 days, blood on day 11, control = 100; for AGL (%): free fatty acids; for TG (%): triglycerides
Protocol: Les animaux (rats Zucker Fa/Fa mâles) sont traités, chaque jour, pendant 10 jours en administrant, par voie orale, les composés de l'invention à la dose de 5 mg/kg/jour en suspension dans une solution à 20 % de gomme du Sénégal. Le 11ème jour, les animaux sont sacrifiés et le sang recueilli afin de déterminer la glycémie, les triglycérides plasmatiques et l'insuline immuno-réactive. D'autre part, les animaux sont pesés avant et après traitement.
Dans ces conditions, les composés de l'invention n'ont pas d'influence sur le taux de glucose circulant mais diminuent le taux de triglycérides et d'acides gras libres plasmatiques ainsi que celui de l'insuline immuno-réactive. Cette activité est égale ou supérieure à celle d'autres dérivés de thiazolidinedione de référence.

[3] = Mus musculus, po, dose-effect study

Row | Compound | Pouvoir hypoglycémiant [1] | Dose provoquant le même effet hypoglycémiant [1] | minimal effective dose [1, 3] [mg/kg] | ED30 ([1]; Mus musculus, po, dose-effect study, read-out: ED30 (dose donnant une diminution de la glycémie initiale de 30 %)) [mg/kg] | Glycémie (%) [2] [%] | Plasma insuline (%) [2] [%] | AGL (%) [2] [%] | TG (%) [2] [%]
1 | O=C1NC(=O)C(Cc2ccc3c(c2)CC[C@H](Cc2ccccc2)O3)S1 (stereo partly drawn) [Englitazone] | 100 | 10-20 mg/kg/jour | – | – | – | – | – | –
2 | CC1(COc2ccc(CC3SC(=O)NC3=O)cc2)CCCCC1 (stereo not drawn) [Ciglitazone] | 100 | 50-100 mg/kg/jour | – | – | – | – | – | –
3 | Cc1c(C)c2c(c(C)c1O)CCC(C)(COc1ccc(CC3SC(=O)NC3=O)cc1)O2 (stereo not drawn) [CS 045] | 100 | 150-200 mg/kg/jour | – | – | – | – | – | –
4 | O=C1NC(=O)C(Cc2ccc3oc(Cc4ccc5ccccc5c4)cc3c2)S1 (racemic) [Exemple 2, 5-[2-(2-Naphtylméthyl)-5-benzofuranylméthyl] thiazolidine-2,4-dione] | 100 | 5-10 mg/kg/jour | 0.1 | < 0.1 | 97 | 50 | 48 | 35
5 | CCc1ccc(CCOc2ccc(CC3SC(=O)NC3=O)cc2)nc1 (stereo not drawn) [Pioglitazone] | 100 | 10 mg/kg/jour | 3 | – | 103 | 61 | 52 | 44
